Measurements reported in ChEMBL document CHEMBL5058564, “EUbOPEN Chemogenomics Library 2 (Incucyte)” (2022).

Experiments:
Format in all cases: toxicity, cell-based
Fibroblast = test: Incucyte cell viability with human fibroblast; settings: 10 µM, compound concentration 10 uM
U2OS = test: Incucyte cell viability with U2OS; settings: human, 10 µM, compound concentration 10 uM
HEK-293T = test: Incucyte cell viability with HEK293T; settings: human, 10 µM, compound concentration 10 uM
[1] = 0 h, replicate number 1, timepoint 0 hours
[2] = 6 h, replicate number 2, timepoint 6 hours
[3] = 12 h, replicate number 2, timepoint 12 hours
[4] = 18 h, replicate number 1, timepoint 18 hours
[5] = 24 h, replicate number 1, timepoint 24 hours
[6] = 6 h, replicate number 1, timepoint 6 hours
[7] = 12 h, replicate number 1, timepoint 12 hours
[8] = 18 h, replicate number 2, timepoint 18 hours
[9] = 24 h, replicate number 2, timepoint 24 hours
[10] = 0 h, replicate number 2, timepoint 0 hours
Note: unitless GR value; below 1 slowed growth and below 0 cell loss.

CO[C@H]1CC[C@@H](C(=O)c2ccc3nc4c(cc3c2)CCCO4)CC1
Growth Rate (Fibroblast; [1]): 0.96
Growth Rate (Fibroblast; [2]): 0.07
Growth Rate (Fibroblast; [3]): 0.87
Growth Rate (Fibroblast; [4]): 0.79
Growth Rate (Fibroblast; [5]): 0.48
Growth Rate (U2OS; [6]): -0.12
Growth Rate (U2OS; [2]): 0.55
Growth Rate (U2OS; [7]): 0.27
Growth Rate (U2OS; [3]): 0.67
Growth Rate (U2OS; [4]): 0.36
Growth Rate (U2OS; [8]): 0.74
Growth Rate (U2OS; [5]): 0.74
Growth Rate (U2OS; [9]): 0.78
Growth Rate (HEK-293T; [6]): 0.72
Growth Rate (HEK-293T; [7]): 0.84
Growth Rate (HEK-293T; [4]): 0.59
Growth Rate (HEK-293T; [5]): 0.73

Cn1cnc(-c2cc3nccc(Oc4ccc(NC(=S)NC(=O)Cc5ccccc5)cc4F)c3s2)c1
Growth Rate (Fibroblast; [10]): 0.94
Growth Rate (Fibroblast; [6]): 0.43
Growth Rate (Fibroblast; [2]): -0.42
Growth Rate (Fibroblast; [7]): -0.11
Growth Rate (Fibroblast; [3]): 0.3
Growth Rate (Fibroblast; [4]): 0.43
Growth Rate (Fibroblast; [8]): 0.77
Growth Rate (Fibroblast; [5]): 0.31
Growth Rate (U2OS; [1]): -0.11
Growth Rate (U2OS; [10]): -0.99
Growth Rate (U2OS; [3]): 0.95
Growth Rate (U2OS; [8]): 0.93
Growth Rate (U2OS; [9]): 0.98
Growth Rate (HEK-293T; [6]): -0.37
Growth Rate (HEK-293T; [2]): -0.26
Growth Rate (HEK-293T; [7]): -0.02
Growth Rate (HEK-293T; [3]): 0.34
Growth Rate (HEK-293T; [4]): 0.28
Growth Rate (HEK-293T; [8]): 0.64
Growth Rate (HEK-293T; [5]): 0.6
Growth Rate (HEK-293T; [9]): 0.99

COc1ncc2cc(C(=O)Nc3cc(C(=O)NCc4cccc(Cl)c4)ccc3Cl)c(=O)[nH]c2n1
Growth Rate (Fibroblast; [1]): 0.34
Growth Rate (Fibroblast; [10]): 0.82
Growth Rate (Fibroblast; [6]): -0.08
Growth Rate (Fibroblast; [2]): -0.3
Growth Rate (Fibroblast; [7]): 0.48
Growth Rate (Fibroblast; [3]): 0.41
Growth Rate (Fibroblast; [4]): 0.51
Growth Rate (Fibroblast; [5]): 0.76
Growth Rate (U2OS; [6]): 0.36
Growth Rate (U2OS; [2]): 0.28
Growth Rate (U2OS; [3]): 0.69
Growth Rate (U2OS; [4]): 0.51
Growth Rate (U2OS; [8]): 0.67
Growth Rate (U2OS; [5]): 0.75
Growth Rate (U2OS; [9]): 0.69
Growth Rate (HEK-293T; [6]): 0.48
Growth Rate (HEK-293T; [2]): 0.93
Growth Rate (HEK-293T; [7]): 0.55
Growth Rate (HEK-293T; [3]): 0.83
Growth Rate (HEK-293T; [4]): 0.64
Growth Rate (HEK-293T; [8]): 0.9
Growth Rate (HEK-293T; [5]): 0.66
Growth Rate (HEK-293T; [9]): 0.93

Cc1cc(Cn2cnc3c2C[C@@H](C(=O)O)N(C(=O)C(c2ccccc2)c2ccccc2)C3)ccc1N(C)C
Growth Rate (Fibroblast; [1]): 0.15
Growth Rate (Fibroblast; [6]): 0.22
Growth Rate (Fibroblast; [4]): 0.53
Growth Rate (Fibroblast; [8]): 0.97
Growth Rate (Fibroblast; [5]): 0.39
Growth Rate (Fibroblast; [9]): 0.88
Growth Rate (U2OS; [10]): 0.34
Growth Rate (U2OS; [9]): 0.97
Growth Rate (HEK-293T; [6]): 0.56
Growth Rate (HEK-293T; [2]): 0.61
Growth Rate (HEK-293T; [7]): 0.72
Growth Rate (HEK-293T; [3]): 0.75
Growth Rate (HEK-293T; [4]): 0.7
Growth Rate (HEK-293T; [8]): 0.99
Growth Rate (HEK-293T; [5]): 0.85

Cn1cc(C(=O)OCC2CCN(CCNS(C)(=O)=O)CC2)c2ccccc21
Growth Rate (Fibroblast; [1]): 0.81
Growth Rate (Fibroblast; [6]): -0.25
Growth Rate (Fibroblast; [7]): 0.1
Growth Rate (Fibroblast; [3]): 0.4
Growth Rate (Fibroblast; [4]): 0.33
Growth Rate (Fibroblast; [5]): 0.43
Growth Rate (Fibroblast; [9]): 0.82
Growth Rate (U2OS; [2]): 0.45
Growth Rate (U2OS; [3]): 0.95
Growth Rate (U2OS; [8]): 0.89
Growth Rate (HEK-293T; [6]): 0.81
Growth Rate (HEK-293T; [7]): 0.43
Growth Rate (HEK-293T; [4]): 0.29
Growth Rate (HEK-293T; [5]): 0.35
Growth Rate (HEK-293T; [9]): 0.96

CC[S+]([O-])c1nc(-c2cccc(OCc3ccccc3)c2)cc(C(F)(F)F)n1 (centres undefined)
Growth Rate (Fibroblast; [6]): -0.79
Growth Rate (Fibroblast; [2]): -0.73
Growth Rate (Fibroblast; [7]): -0.65
Growth Rate (Fibroblast; [3]): -0.52
Growth Rate (Fibroblast; [4]): -0.48
Growth Rate (Fibroblast; [5]): -0.4
Growth Rate (Fibroblast; [9]): -0.5
Growth Rate (U2OS; [10]): -1
Growth Rate (U2OS; [6]): -0.91
Growth Rate (U2OS; [2]): -0.17
Growth Rate (U2OS; [7]): -0.48
Growth Rate (U2OS; [3]): -0.16
Growth Rate (U2OS; [4]): -0.19
Growth Rate (U2OS; [8]): 0.03
Growth Rate (U2OS; [5]): -0.09
Growth Rate (U2OS; [9]): 0.16
Growth Rate (HEK-293T; [6]): -0.65
Growth Rate (HEK-293T; [2]): -0.82
Growth Rate (HEK-293T; [7]): -0.45
Growth Rate (HEK-293T; [3]): -0.65
Growth Rate (HEK-293T; [4]): -0.27
Growth Rate (HEK-293T; [8]): -0.43
Growth Rate (HEK-293T; [5]): -0.13
Growth Rate (HEK-293T; [9]): -0.24

CN1CCN(c2nc3cc(C(F)(F)F)ccc3n3cccc23)CC1.O=C(O)/C=C\C(=O)O.O=C(O)/C=C\C(=O)O
Growth Rate (Fibroblast; [1]): 0.87
Growth Rate (Fibroblast; [6]): 0.24
Growth Rate (Fibroblast; [7]): 0.72
Growth Rate (Fibroblast; [4]): 0.98
Growth Rate (U2OS; [10]): -1
Growth Rate (HEK-293T; [6]): 0.89
Growth Rate (HEK-293T; [2]): 0.57
Growth Rate (HEK-293T; [3]): 0.87
Growth Rate (HEK-293T; [8]): 0.7
Growth Rate (HEK-293T; [5]): 0.8

Cn1cc(-c2ccc3occ(-c4cccc(-c5ccncc5)c4)c3n2)cn1
Growth Rate (Fibroblast; [6]): -0.96
Growth Rate (Fibroblast; [7]): -0.95
Growth Rate (Fibroblast; [3]): -0.62
Growth Rate (Fibroblast; [4]): -0.87
Growth Rate (Fibroblast; [8]): -0.23
Growth Rate (Fibroblast; [5]): -0.84
Growth Rate (Fibroblast; [9]): 0.02
Growth Rate (U2OS; [1]): -0.88
Growth Rate (U2OS; [6]): -0.02
Growth Rate (U2OS; [2]): -0.14
Growth Rate (U2OS; [7]): -0.03
Growth Rate (U2OS; [3]): -0.05
Growth Rate (U2OS; [4]): -0.03
Growth Rate (U2OS; [8]): 0.09
Growth Rate (U2OS; [5]): -0.02
Growth Rate (U2OS; [9]): 0.09
Growth Rate (HEK-293T; [6]): -0.87
Growth Rate (HEK-293T; [2]): -0.61
Growth Rate (HEK-293T; [7]): -0.67
Growth Rate (HEK-293T; [3]): -0.44
Growth Rate (HEK-293T; [4]): -0.56
Growth Rate (HEK-293T; [8]): -0.33
Growth Rate (HEK-293T; [5]): -0.43
Growth Rate (HEK-293T; [9]): -0.32

Cc1cccc(NC(=O)CN2CCC(c3ccccn3)CC2)c1.Cl.Cl
Growth Rate (Fibroblast; [10]): 0.72
Growth Rate (Fibroblast; [6]): 0.02
Growth Rate (Fibroblast; [7]): 0.19
Growth Rate (Fibroblast; [4]): 0.48
Growth Rate (Fibroblast; [5]): 0.77
Growth Rate (U2OS; [10]): -1
Growth Rate (HEK-293T; [6]): 0.47
Growth Rate (HEK-293T; [2]): 0.66
Growth Rate (HEK-293T; [7]): 0.79
Growth Rate (HEK-293T; [3]): 0.97
Growth Rate (HEK-293T; [8]): 0.98

Cc1nc2ccc(Oc3ccc(F)cc3)cc2c(=O)n1C[C@H]1CCCN(C(C)C)C1.Cl
Growth Rate (Fibroblast; [6]): -0.24
Growth Rate (Fibroblast; [2]): -0.65
Growth Rate (Fibroblast; [7]): -0.26
Growth Rate (Fibroblast; [3]): -0.42
Growth Rate (Fibroblast; [4]): -0.42
Growth Rate (Fibroblast; [8]): -0.21
Growth Rate (Fibroblast; [5]): -0.38
Growth Rate (Fibroblast; [9]): -0.28
Growth Rate (U2OS; [6]): -0.6
Growth Rate (U2OS; [2]): 0.98
Growth Rate (U2OS; [3]): 0.97
Growth Rate (U2OS; [8]): 0.96
Growth Rate (HEK-293T; [6]): 0.01
Growth Rate (HEK-293T; [2]): 0.52
Growth Rate (HEK-293T; [7]): -0.18
Growth Rate (HEK-293T; [3]): 0.29
Growth Rate (HEK-293T; [4]): -0.23
Growth Rate (HEK-293T; [8]): 0.13
Growth Rate (HEK-293T; [5]): -0.2
Growth Rate (HEK-293T; [9]): -0.05

CC(=O)c1ccc2c(c1)[C@@H]1C=CC[C@@H]1[C@H](c1cc3c(cc1Br)OCO3)N2
Growth Rate (Fibroblast; [6]): -0.85
Growth Rate (Fibroblast; [2]): -0.8
Growth Rate (Fibroblast; [7]): -0.78
Growth Rate (Fibroblast; [3]): -0.47
Growth Rate (Fibroblast; [4]): -0.76
Growth Rate (Fibroblast; [8]): -0.23
Growth Rate (Fibroblast; [5]): -0.54
Growth Rate (Fibroblast; [9]): -0.18
Growth Rate (U2OS; [1]): 0.33
Growth Rate (U2OS; [2]): 0
Growth Rate (U2OS; [7]): 0.01
Growth Rate (U2OS; [3]): -0.23
Growth Rate (U2OS; [4]): 0.03
Growth Rate (U2OS; [8]): -0.33
Growth Rate (U2OS; [5]): -0.17
Growth Rate (U2OS; [9]): -0.31
Growth Rate (HEK-293T; [6]): -0.31
Growth Rate (HEK-293T; [2]): -0.36
Growth Rate (HEK-293T; [7]): 0.01
Growth Rate (HEK-293T; [3]): -0.05
Growth Rate (HEK-293T; [4]): -0.14
Growth Rate (HEK-293T; [8]): -0.06
Growth Rate (HEK-293T; [5]): -0.12
Growth Rate (HEK-293T; [9]): -0.02
